Measured values taken from publication PMC8559303 (European Journal of Medicinal Chemistry, 2021).

System: SARS-CoV-2
Assay type: cell-based
Conditions: 200 μM, Vero E6, CCK8

SMILES	protection on cells from death caused by viral infection
CCN1Cc2cc(OC)c(OC)cc2-c2cccc(NC(=O)C(F)(F)F)c21 [Compound 16, N-(5-Ethyl-8,9-dimethoxy-5,6-dihydrophenanthridin-4-yl)-2,2,2-trifluoroacetamide]	~100%
CCN1Cc2cc(OC)c(OC)cc2-c2cccc(N)c21 [Compound 12, 5-Ethyl-8,9-dimethoxy-5,6-dihydrophenanthridin-4-amine]	~100%
